From the supplement of paper PMC10307832

Columns and labels:
Experiment in all cases: relative viability (nuclei count vs DMSO), 5 days (fraction); higher = more cells survive
[1] = compound: COc1cc2nccc(Oc3ccc(NC(=O)C4(C(=O)Nc5ccc(F)cc5)CC4)cc3)c2cc1OC [Cabozantinib] + COc1cccc2cc(-c3nc([C@H]4CC[C@H](C(=O)O)CC4)n4ncnc(N)c34)[nH]c12 [OSI-027] (partner 0.5 µM)
Summary of the method: (§1)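 Dosing by pin tool came one day after lung cancer cell lines were seeded in 1536-well plates, using either one drug or a fixed anchor-drug dose plus five library-drug doses (not always all listed) in √10 steps. After 5 days, nuclei were counted on 4× images. Relative viability is treated-well nuclei count divided by vehicle-well nuclei count, and values are medians of duplicate plates.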

[2] = compound: COc1cc2nccc(Oc3ccc(NC(=O)C4(C(=O)Nc5ccc(F)cc5)CC4)cc3)c2cc1OC [Cabozantinib] + O=C(c1cc(Cc2n[nH]c(=O)c3ccccc23)ccc1F)N1CCN(C(=O)C2CC2)CC1 [Olaparib] (partner 8 µM)
Summary of the method: as §1

[3] = compound: O[C@@H](COc1cccc2ncccc12)CN1CCN([C@@H]2c3ccccc3[C@@H]3[C@H](c4ccccc42)C3(F)F)CC1 [Zosuquidar] + CS(=O)(=O)N1CCN(Cc2cc3nc(-c4cccc5[nH]ncc45)nc(N4CCOCC4)c3s2)CC1 [Pictilisib] (partner 1 µM)
Summary of the method: as §1

[4] = compound: O[C@@H](COc1cccc2ncccc12)CN1CCN([C@@H]2c3ccccc3[C@@H]3[C@H](c4ccccc42)C3(F)F)CC1 [Zosuquidar] + O=C(c1cc(Cc2n[nH]c(=O)c3ccccc23)ccc1F)N1CCN(C(=O)C2CC2)CC1 [Olaparib] (partner 8 µM)
Summary of the method: as §1

Cell Line	relative viability ([1]; first compound 0.02 µM)	relative viability ([1]; first compound 0.06325 µM)	relative viability ([1]; first compound 0.2 µM)	relative viability ([1]; first compound 0.6325 µM)	relative viability ([1]; first compound 2 µM)	relative viability ([2]; first compound 0.02 µM)	relative viability ([2]; first compound 0.06325 µM)	relative viability ([2]; first compound 0.2 µM)	relative viability ([2]; first compound 0.6325 µM)	relative viability ([2]; first compound 2 µM)	relative viability ([3]; first compound 0.01 µM)	relative viability ([3]; first compound 0.03162 µM)	relative viability ([3]; first compound 0.1 µM)	relative viability ([3]; first compound 0.3162 µM)	relative viability ([3]; first compound 1 µM)	relative viability ([4]; first compound 0.01 µM)	relative viability ([4]; first compound 0.03162 µM)	relative viability ([4]; first compound 0.1 µM)	relative viability ([4]; first compound 0.3162 µM)	relative viability ([4]; first compound 1 µM)
SK-MES-1	0.542	0.718	0.649	0.665	0.512	0.767	0.845	0.689	0.684	0.694	0.324	0.324	0.33	0.394	0.392	0.707	0.739	0.829	0.73	0.723
NCI-H522	0.585	0.79	0.7	0.766	0.767	0.714	0.667	0.584	0.625	0.648						0.724	0.623	0.684	0.766	0.668
LOU-NH91	0.65	0.744		0.652	0.704	0.96	0.984	0.681	0.903	0.925	0.536	0.572	0.482	0.543	0.516	0.845	0.904	0.728	0.97	0.873
NCI-H1355	0.291	0.477	0.412	0.458	0.411	0.748	0.747	0.775	0.771	0.714	0.427	0.375	0.354	0.546	0.476	0.677	0.709	0.791	0.826	0.809
NCI-H460	0.761	0.927	0.664	0.624	0.584	0.443	0.492	0.445	0.46	0.422	0.326	0.393	0.27	0.437	0.393	0.41	0.403	0.32	0.421	0.39
NCI-H1793	0.196	0.254	0.198	0.253	0.197	1.01	0.899		0.756	0.599	0.483	0.383		0.357	0.297	0.971			1.01	0.758
NCI-H2023	0.308	0.39	0.322	0.327	0.235	0.483	0.545	0.383	0.429	0.433	0.235	0.235	0.171	0.324	0.271	0.498	0.549	0.52	0.485	0.477
NCI-H1666	0.694	0.836	0.816	0.846	0.913	0.821	0.802	0.719	0.715	0.732	0.458	0.491	0.52	0.517	0.274	0.75	0.795	0.73	0.815	0.787
HARA	0.309	0.633	0.377	0.57	0.555	0.794	1.07		0.978	0.635	0.589	0.404	0.312	0.5	0.49	1.13	0.804	0.905	0.936	0.93
NCI-H358	0.641	0.888	0.628	0.74	0.67	0.708	0.625	0.565	0.529	0.591	0.339	0.349	0.218	0.366	0.304	0.671	0.632	0.519	0.65	0.703
Calu-6						0.595	0.662	0.613	0.539	0.517	0.855	0.942	1.02	0.976	0.918	0.583	0.677	0.714	0.605	0.594
NCI-H2342	0.543	0.723	0.563	0.621	0.613	0.436	0.454	0.746	0.495	0.379						0.459	0.544	0.421	0.501	0.439
NCI-H1563	0.762	0.743	0.757	0.718	0.684						0.596	0.632	0.622	0.664	0.661					
NCI-H1299						0.969	0.988	0.964	0.971	1.09	0.623	0.836	0.968	0.796	0.861	0.982	0.976	0.993	0.963	1.01
NCI-H1623	0.392	0.483	0.38	0.414	0.436															
SW 900	0.637	0.695	0.637	0.554	0.376	0.877	0.941	0.664	0.636	0.684						0.853	0.93		1.06	0.838
NCI-H1648	0.255	0.256	0.278	0.281	0.266	1.17	0.995		1.02	0.651						0.5	0.908	0.614	0.799	0.877
IA-LM						0.817	0.849	0.801	1.06	0.925	0.306	0.394	0.342	0.315	0.324	0.817	0.805	0.82	0.879	0.885
A549						0.291	0.628	0.34	0.212	0.309	0.532	0.497	0.494	0.487	0.496	0.301	0.379	0.306	0.371	0.35
